From paper PMC12040169 (PLOS Biology, 2025)

Test: in vitro
Conditions: human, hela cells, % viability

Row | Compound | viability at 28.5 h, 10 µM [%]
1 | COc1ccc(CCNc2c3c(c(C#N)c4nc5ccccc5n24)CCC3)cc1OC [CBK263147] | 97.9
2 | COc1ccc(C(=O)CSc2nnc(-c3ccccc3)c3ccccc23)cc1OC [CBK297088] | 93.3
3 | O=C(Nc1ccc(F)c(C(F)(F)F)c1)c1cncc(-c2ccc(C(=O)N3CCOCC3)cc2)c1 [CBK160216] | 88.2
4 | CCOC(=O)c1ccc2ncc3c(=O)nc(N)sc3c2c1 [CBK291218] | 83.7
5 | CCCNC(=O)Cn1nc(C)n2c(cc3sccc32)c1=O [CBK284020] | 102
6 | CCc1cc(C(=O)OC)c(NC(=O)CC2Nc3cccc4cccc(c34)NC2=O)s1 (stereo not drawn) [CBK267563] | 59.8
7 | CCOC(=O)CC(=O)CSc1nc(C)cc(-c2cccs2)c1C#N [CBK267446] | 86.6
8 | CN(CCC#N)S(=O)(=O)c1ccc(OC(F)(F)F)cc1 [CBK044415] | 88.1
9 | COc1ccc2[nH]cc(CCNC(=O)CCC(=O)O)c2c1 [CBK116605] | 96.5
10 | Cc1cc(COc2nccnc2N2CCN(Cc3ccc(C(C)C)cc3)CC2)no1 [CBK084186] | 94.9
11 | O=C(Cn1ccc(=O)[nH]c1=O)Nc1ccc(OCC(F)(F)F)cc1 [CBK305879] | 98
12 | COCc1cccc(-c2ncc(OCCN3CCCC3=O)nc2N)c1 [CBK145110] | 93.6
13 | COc1ccc(-c2coc3c(C)c4oc(=O)c(CC(=O)O)c(C)c4cc23)cc1 [CBK269403] | 105
14 | CC(C)[C@H](NS(=O)(=O)c1ccc(Cl)cc1)C(=O)NCc1ccc(Cn2cccn2)cc1 [CBK295611] | 104
15 | O=C(NCC1(CCO)CCOC1)c1c[nH]nc1-c1cc2ccccc2o1 (stereo not drawn) [CBK305492] | 103
16 | COc1ccc(-n2nnnc2SCc2ccc(Cl)cc2)cc1 [CBK101068] | 60.7
17 | CCNC(=O)COc1ccc(C=Cc2nc(-c3ccccc3)c(C(=O)O)s2)cc1OCC [CBK296644] | 94.6
18 | CC(CN(C)C(=O)Cn1cccc(C(=O)Nc2ccc(F)cc2)c1=O)c1ccccc1 (stereo not drawn) [CBK286065] | 92.5
19 | Cc1cccc2cc(C#N)c(NCCCn3ccnc3)nc12 [CBK109369] | 77.9
20 | Cc1cc(C[C@@H]2COC[C@H]2NCc2ccc(C(C)C)cc2)on1 [CBK284884] | 107
21 | COc1cccc(OCC(O)CN2CCN(Cc3ccccc3)CC2)c1 (stereo not drawn) [CBK074856C] | 108
22 | Cc1ccc(CN(C)C(C)C(=O)NCc2cccs2)cc1 (stereo not drawn) [CBK295663] | 103

Row | Compound | viability at 28.5 h, 10 µM [%]
23 | COCCNC(=O)c1ccc(-c2ccccc2OC)nc1N(C)C [CBK106052] | 92
24 | NC(=O)COc1ccccc1OCC(N)=O [CBK261032] | 87.5
25 | Cc1cc(NC(=O)C2CCN(C)CC2)c2ccccc2n1 [CBK122730] | 91.1
26 | CCn1nc(C(C)C)cc1C(=O)N1CCN(C)CC1c1ccccc1 (stereo not drawn) [CBK282025] | 100
27 | O=C(O)c1cccc(NS(=O)(=O)c2ccc(F)c(C(F)(F)F)c2)c1 [CBK155693] | 97.2
28 | c1ccc(Oc2ccc(Nc3cccc(-c4ccc5ccccc5c4)n3)cc2)cc1 [CBK037636] | 112
29 | CN1CCc2c(sc3nc(SCc4ccc(Cl)c(Cl)c4)n(-c4ccccc4)c(=O)c23)C1 [CBK263706] | 94.2
30 | CCOC(=O)C1(Cc2ccc(F)cc2F)CCCN(C(=O)CC)C1 (stereo not drawn) [CBK307012] | 92.7
31 | CCOC(=O)c1ccccc1NC(=O)N(Cc1ccc2ccccc2c1)CC1CCNCC1 [CBK049769] | 98.3
32 | C=CCSC1=N/C(=C\c2ccc(C(=O)O)cc2)C(=O)S1 [CBK265057] | 95.7
33 | CN(c1ccccc1C(N)=O)S(=O)(=O)c1ccc(S(=O)(=O)C(F)F)cc1 [CBK298289] | 88.3
34 | Oc1ccc(Cl)cc1/C=N/c1ccc(-c2cc(-c3ccc(/N=C/c4cc(Cl)ccc4O)cc3)ncn2)cc1 [CBK261626] | 101
35 | Cc1ccc(-c2noc([C@@H]3Cc4[nH]cnc4CN3C(=O)c3cccs3)n2)cc1 [CBK288957] | 82.2
36 | CS(=O)(=O)N1CC=CC1C(=O)NCCCc1ccc(F)cc1 (stereo not drawn) [CBK282631] | 85.5
37 | O=C(c1ccccc1)N1C[C@@H](c2ccsc2)[C@@H]2CN(Cc3ccccc3F)CC[C@@H]21 [CBK285612] | 116
38 | Cc1[nH]c2ccc(C(=O)N(Cc3ccccc3)C3CC3)cc2c1C [CBK297913] | 89.1
39 | COc1cncc(-c2cncc(Nc3ccccc3)n2)c1 [CBK065435] | 113
40 | Cc1cc(C)c2c(OCC(=O)Nc3nc(C(N)=O)cs3)nn(C)c2n1 [CBK305530] | 83.9
41 | CC(C)(O)C#Cc1ccccc1C(=O)NC(Cc1c[nH]c2ccccc12)C(=O)O (stereo not drawn) [CBK267701] | 80.4
42 | Nc1nc2c(cc1C(=O)NCc1ccccc1)CN(C(=O)CCCc1ccc(F)cc1)CC2 [CBK285887] | 95.3
43 | CCCS(=O)(=O)c1ccc(NC(=O)Nc2ccc(Cl)cc2Cl)cc1 [CBK008564] | 76.1
44 | COc1ccc(/C(C)=N\NC(=O)c2cccc(Br)c2)cc1 [CBK261612] | 100

Row | Compound | viability at 28.5 h, 10 µM [%]
45 | CN(C)CC(=O)N1CCN(c2cncc(-c3ccc(O)cc3)n2)CC1 [CBK126921T] | 97.2
46 | COc1cc2nc(S)n(CCc3ccc(S(N)(=O)=O)cc3)c(=O)c2cc1OC [CBK268457] | 84.4
47 | COc1ccc(C(C)(C)C)cc1S(=O)(=O)NC1CC(C)(C)NC(C)(C)C1 [CBK267865] | 102
48 | O=C(COc1ccc2ccccc2c1)Nc1ccc(S(=O)(=O)N2CCc3ccccc32)cc1 [CBK263802] | 91.5
49 | CS(=O)(=O)Nc1ccc2cc(-c3ccc(Oc4ccccc4)cc3)cnc2n1 [CBK085674] | 98
50 | CC(C)N1CCC(C(=O)NC(=O)NCCc2ccc3c(c2)OCO3)CC1 [CBK034804] | 96.6
51 | COc1ccc(-c2nc(NC(=O)C3CC(=O)N(C)C3c3cccnc3)cnc2-c2cccc(C)c2)cc1 (stereo not drawn) [CBK036692] | 101
52 | CN(C)CCN1CCN(c2nc(-c3cccc4ccccc34)cnc2N)CC1 [CBK063479] | 94.7
53 | O=c1[nH]c2cccc(O)c2o1 [CBK048613] | 90.9
54 | O=C1N[C@@H]2CCN(Cc3cnccn3)C[C@H]2C/C=C/CC2(CCOCC2)C(=O)N[C@H]1Cc1ccccc1 [CBK292189] | 97.3
55 | S=c1nc(-c2ccccc2)n(-c2ccccc2)[nH]1 [CBK288474] | 103
56 | c1csc(CCN2CCC3(C2)NCCc2c3[nH]c3ccccc23)c1 (stereo not drawn) [CBK040196] | 111
57 | FC(F)(F)c1cc(-c2cn3ccnc3c(N3CCOCC3)n2)cc(C(F)(F)F)c1 [CBK066396] | 93.4
58 | COc1cc(F)cc(OC2CCNCC2)c1NC(=O)/C=C/c1cccnc1 [CBK050344T] | 103
59 | Fc1cccc(F)c1-c1cc(Nc2ccc(N3CCOCC3)cc2)ncn1 [CBK037673] | 99.5
60 | CCCCOc1ccc2c(C(F)(F)F)cc(=O)oc2c1 [CBK097821] | 104
61 | O=C(NC1CCNCC1)c1cc2ccccc2[nH]1 [CBK168609] | 84.6
62 | O=S(=O)(NCCc1c[nH]c2ccccc12)c1cccc2nsnc12 [CBK057456] | 83.4
63 | Cn1c(C(=O)NC2CCOC(C)(C)C2)cc2ccccc21 (stereo not drawn) [CBK304344] | 91.7
64 | COc1cc(C(=O)N2CCC3(CC2)NC(=O)c2cc(C)ccc2O3)ccc1C [CBK166276] | 108
65 | CCC(CC)C(=O)Nc1nc(OC)cnc1-c1cc(Cl)cc(Cl)c1 [CBK145338] | 95.8
66 | O=C(O)c1cccc(NS(=O)(=O)c2ccc(F)cc2F)c1 [CBK155084] | 95.4

Row | Compound | viability at 28.5 h, 10 µM [%]
67 | CC(=O)N1C[C@@H]2C[C@H](C1)c1ccc(NC(=O)c3ccc(C#N)cc3)c(=O)n1C2 [CBK289202] | 90.6
68 | CCCC/C=C/c1cncc(Nc2cc(OC)c(OC)c(OC)c2)n1 [CBK065155] | 102
69 | COc1cccc(CN2CCN(C(=O)c3cc(-c4ccncc4)nc4ccc(C)cc34)CC2)c1 [CBK267760] | 86
70 | CC(=O)Nc1ccc(-c2cncc(N(C)CCN(C)C)n2)cc1 [CBK065694] | 97.8
71 | Cc1cc(N2CCOCC2)c2c(N)c(C)cc(C)c2n1 [CBK126908] | 83.8
72 | Nn1c(SCC(=O)Nc2ccc3c(c2)OCO3)nnc1-c1ccccn1 [CBK267550] | 101
73 | CN(C)C1=NC(N(C)C)=NP(N(C)C)(N(C)C)=N1 [CBK261057] | 91.8
74 | Cc1ccc(N2C(=O)c3ccc(C(=O)c4ccc(C(=O)O)cc4)cc3C2=O)cc1 [CBK287164] | 93.5
75 | COc1ccc2c(c1)CC(=O)NC21CCN(C(=O)N[C@@H](C)c2ccccc2)CC1 [CBK047325] | 92.4
76 | CC1(C)CCCN1C1=NC(=O)C(c2ccccc2)O1 (stereo not drawn) [CBK023070] | 104
77 | N#CCCn1cc(C(N)=O)c(-c2cc3ccccc3o2)n1 [CBK306204] | 92.9
78 | CC(C)C1SC(=NC2CC3CCC2C3)N(C)C1=O (stereo not drawn) [CBK076727] | 90.6
79 | COc1cc(C)c(Nc2cccc(-c3ccsc3)n2)cc1OC [CBK037025] | 104
80 | Cc1c(C(=O)N2CCC(F)(CO)C2)nnn1-c1ccc2ncccc2c1 (stereo not drawn) [CBK304483] | 101
81 | O=[N+]([O-])c1cc(S(=O)(=O)Nc2nnc(C(F)(F)F)s2)ccc1Cl [CBK062021] | 105
82 | NC(=O)c1cccnc1N1CCNCC1 [CBK025310C] | 85.8
83 | O=C(O)C(c1c[nH]c2cc(F)ccc12)N1CCN(CC(=O)N2CCOCC2)CC1 (stereo not drawn) [CBK286825] | 86.5
84 | O=C(O)CSc1nnc(-c2ccco2)n1-c1ccccc1 [CBK131685] | 85.9
85 | [N-]=[N+]=Nc1nc2c(N)ncnc2n1C1CC(O)C(CO)O1 (stereo not drawn) [CBK201178] | 95.2

Same assay, conditions: human, hela cells, % viability, bulk resorufin, single well

Row | Compound | viability at 28.5 h, 10 µM [%]
86 | O=C1NC(=S)NC(=O)C1=Cc1ccc(OCc2ccccc2F)c(Br)c1 [CBK264257] | 97.7
87 | Cc1ccc(N2C(=O)NC(=O)/C(=C\c3ccc(OCC(=O)O)c(Br)c3)C2=O)cc1C [CBK263899] | 84
